In patent publication US20230382925A1, “MODULATORS OF CYSTIC FIBROSIS TRANSMEMBRANE CONDUCTANCE REGULATOR” (VERTEX PHARMACEUTICALS INCORPORATED, priority 2020, published 2023):
pEC50: −log10 of the molar value. Where two headings read alike, the source gives them in different places.

Biological target: CFTR (Homo sapiens, UniProt P13569)
Assay: Membrane Potential Dye, Enteroid Assay B
Format: cell-based
Protocol: Base medium (ADF+++) consisted of Advanced […], 2 mM Glutamax, 10 mM HEPES, 1 μg/mL penicillin/streptomycin.
Intestinal enteroid maintenance medium (IEMMN) consisted of ADF+++, 1× B27 supplement, 1× N2 supplement, 1.25 mM N-acetyl cysteine, 10 mM Nicotinamide, 50 ng/mL hEGF, 10 nM Gastrin, 1 μg/mL hR-spondin-1, 100 ng/mL hNoggin, TGF-b type 1 inhibitor A-83-01, 100 μg/mL Primocin, 10 μM P38 MAPK inhibitor SB202190.
Bath 1 Buffer consisted of 1 mM MgCl2, 160 mM NaCl, 4.5 mM KCl, 10 mM HEPES, 10 mM Glucose, 2 mM CaCl2).
Chloride Free Buffer consisted of 1 mM Magnesium Gluconate, 2 mM Calcium Gluconate, 4.5 mM Potassium Gluconate, 160 mM Sodium Gluconate, 10 mM HEPES, 10 mM Glucose.
Bath 1 Dye Solution consisted of Bath 1 Buffer, 0.04% Pluronic F127, 20 μM Methyl Oxonol, 30 μM CaCCinh-A01, 30 μM Chicago Sky Blue.
Chloride Free Dye Solution consisted of Chloride Free Buffer, 0.04% Pluronic F127, 20 μM Methyl Oxonol, 30 μM CaCCinh-A01, 30 μM Chicago Sky Blue.
Chloride Free Dye Stimulation Solution consisted of Chloride Free Dye Solution, 10 μM forskolin, 100 μM IBMX, and 300 nM Compound III.
Human intestinal epithelial enteroid cells were obtained from the Hubrecht Institute for Developmental Biology and Stem Cell Research, Utrecht, The Netherlands and expanded in T-Flasks as previously described (Dekkers J F, Wiegerinck C L, de Jonge H R, Bronsveld I, Janssens H M, de Winter-de Groot K M, Brandsma A M, de Jong N W M, Bijvelds M J C, Scholte B J, Nieuwenhuis E E S, van den Brink S, Clevers H, van der Ent C K, Middendorp S and M Beekman J M. A functional CFTR assay using primary cystic fibrosis intestinal organoids. Nat Med. 2013 July; 19(7):939-45.).
3. Enteroid Cell Harvesting and Seeding
Cells were recovered in cell recovery solution, collected by centrifugation at 650 rpm for 5 min at 4° C., resuspended in TrypLE and incubated for 5 min at 37° C. Cells were then collected by centrifugation at 650 rpm for 5 min at 4° C. and resuspended in IEMM containing 10 μM ROCK inhibitor (RI). The cell suspension was passed through a 40 μm cell strainer and resuspended at 1×10^6 cells/mL in IEMM containing 10 μM RI. Cells were seeded at 5000 cells/well into multi-well plates and incubated for overnight at 37° C., 95% humidity and 5% CO2 prior to assay.
5. Membrane Potential Dye, Enteroid Assay B
Enteroid cells were incubated with test compound in IEMM for 18-24 hours at 37° C., 95% humidity and 5% CO2. […] Briefly, cells were washed 5 times in Bath 1 Buffer. Bath 1 Dye Solution was added and the cells were incubated for 25 min at room temperature. Following dye incubation, cells were washed 3 times in Chloride Free Dye Solution. Chloride transport was initiated by addition of Chloride Free Dye Stimulation Solution and the fluorescence signal was read for 15 min. […] Chloride transport was then expressed as a percentage of the chloride transport following treatment with 1 μM (14S)-8-[3-(2-{Dispiro[2.0.2.1]heptan-7-yl}ethoxy)-1H-pyrazol-1-yl]-12,12-dimethyl-2λ^6-thia-3,9,11,18,23-pentaazatetracyclo[17.3.1.111,14.05,10]tetracosa-1(22),5,7,9,19(23),20-hexaene-2,2,4-trione, 3 μM (R)-1-(2,2-difluorobenzo[d][1,3]dioxol-5-yl)-N-(1-(2,3-dihydroxypropyl)-6-fluoro-2-(1-hydroxy-2-methylpropan-2-yl)-1H-indol-5-yl)cyclopropanecarboxamide and 300 nM acute N-[2,4-bis(1,1-dimethylethyl)-5-hydroxyphenyl]-1,4-dihydro-4-oxoquinoline-3-carboxamide triple combination control (% Activity).

[1] = Table 10, read-out: Ent. B EC50

Chain of CFTR (P13569 with tags, fused parts or gaps DEL508-508): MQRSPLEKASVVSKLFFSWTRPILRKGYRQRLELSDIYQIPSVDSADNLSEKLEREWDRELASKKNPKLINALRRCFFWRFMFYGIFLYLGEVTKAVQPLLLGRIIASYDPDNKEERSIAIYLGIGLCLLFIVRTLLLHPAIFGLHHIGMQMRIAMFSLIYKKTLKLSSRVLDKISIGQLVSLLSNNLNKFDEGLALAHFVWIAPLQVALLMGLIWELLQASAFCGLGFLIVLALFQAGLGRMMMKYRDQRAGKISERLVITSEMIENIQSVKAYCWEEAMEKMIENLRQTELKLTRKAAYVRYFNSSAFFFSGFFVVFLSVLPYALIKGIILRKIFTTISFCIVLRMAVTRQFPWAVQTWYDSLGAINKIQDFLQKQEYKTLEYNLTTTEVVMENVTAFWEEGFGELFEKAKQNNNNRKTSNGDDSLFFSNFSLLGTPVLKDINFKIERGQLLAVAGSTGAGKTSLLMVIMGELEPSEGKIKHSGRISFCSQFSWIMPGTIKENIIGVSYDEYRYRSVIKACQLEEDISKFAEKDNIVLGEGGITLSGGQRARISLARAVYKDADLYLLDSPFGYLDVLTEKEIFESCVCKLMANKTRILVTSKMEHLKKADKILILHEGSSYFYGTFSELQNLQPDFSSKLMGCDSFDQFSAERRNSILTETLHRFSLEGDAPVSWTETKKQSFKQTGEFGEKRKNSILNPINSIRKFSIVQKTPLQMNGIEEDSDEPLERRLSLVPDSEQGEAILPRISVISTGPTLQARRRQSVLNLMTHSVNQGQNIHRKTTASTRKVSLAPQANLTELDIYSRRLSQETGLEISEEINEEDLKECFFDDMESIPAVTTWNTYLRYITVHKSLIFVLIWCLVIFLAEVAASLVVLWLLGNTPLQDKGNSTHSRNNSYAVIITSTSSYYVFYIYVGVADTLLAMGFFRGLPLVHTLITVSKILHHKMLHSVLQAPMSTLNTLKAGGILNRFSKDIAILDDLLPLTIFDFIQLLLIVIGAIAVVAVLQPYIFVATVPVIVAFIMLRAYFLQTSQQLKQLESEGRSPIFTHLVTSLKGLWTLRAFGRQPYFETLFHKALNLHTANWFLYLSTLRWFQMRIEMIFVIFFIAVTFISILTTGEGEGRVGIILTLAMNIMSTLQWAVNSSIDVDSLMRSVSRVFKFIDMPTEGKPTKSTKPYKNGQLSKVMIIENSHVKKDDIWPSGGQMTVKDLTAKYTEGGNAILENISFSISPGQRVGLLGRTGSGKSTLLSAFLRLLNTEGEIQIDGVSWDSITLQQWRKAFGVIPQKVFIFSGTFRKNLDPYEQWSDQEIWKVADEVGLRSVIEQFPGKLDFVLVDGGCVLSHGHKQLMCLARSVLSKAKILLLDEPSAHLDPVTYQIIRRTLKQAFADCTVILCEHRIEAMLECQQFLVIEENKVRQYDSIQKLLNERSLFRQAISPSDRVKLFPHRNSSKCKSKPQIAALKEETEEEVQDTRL

| SMILES | Ent. B Max Activity (%) (Table 9) | pEC50 (Table 9, read-out: Ent. B EC50) | Ent. B Max Activity (%) (Table 10) | pEC50 [1] | also measured |
| --- | --- | --- | --- | --- | --- |
| [H][C@]1(N2C(=O)c3cccc(c3)S(=O)(=O)Nc3nc(cc(-c4c(C)cccc4C)n3)OC[C@H]2CC(C)C)C[C@@]2(C[C@H](N(C)C(=O)OC(C)C)C2)C1 (some centres unmarked) [Compound 284] | ++ (++ is 30-60%) | > 6.00 |  |  |  |
| COCCN[C@H]1C[C@]2(C1)C[C@H](N1C(=O)c3cccc(c3)S(=O)(=O)Nc3nc(cc(-c4c(C)cccc4C)n3)OC[C@H]1CC1(C(F)(F)F)CC1)C2 (some centres unmarked) [Compound 270] | +++ (+++ is >60%) | > 6.00 |  |  |  |
| CO[C@H](C)C(=O)N1CCC2(CC1)CC(N1C(=O)c3cccc(c3)S(=O)(=O)Nc3nc(cc(-c4c(C)cccc4C)n3)OC[C@H]1CC(C)C)C2 [Compound 457] | +++ (+++ is >60%) | > 6.00 |  |  |  |
| Cc1cccc(C)c1-c1cc2nc(n1)NS(=O)(=O)c1cccc(c1)C(=O)N([C@H]1C[C@H](OC(=O)NCC3CCCCC3)C1)[C@H](CC(C)C)CO2 (stereo in doubt) [Compound 363] |  |  | ++ (++ is 30-60%) | > 6.00 |  |
| [H][C@]1(N2C(=O)c3cccc(c3)S(=O)(=O)Nc3nc(cc(-c4c(C)cccc4C)n3)OC[C@H]2CC(C)C)C[C@@]2(C[C@H](C(C)(C)O)C2)C1 (stereo in doubt) [Compound 412] |  |  | +++ (+++ is >60%) | > 6.00 |  |
| COC(=O)N(C)C1(C)CC(N2C(=O)c3cccc(c3)S(=O)(=O)Nc3nc(cc(-c4c(C)cccc4C)n3)OC[C@H]2CC(C)(C)C)C1 (stereo in doubt) [Compound 241] |  |  | ++ (++ is 30-60%) | > 6.00 |  |
| Cc1cccc(C)c1-c1cc2nc(n1)NS(=O)(=O)c1cccc(n1)C(=O)N(C1CC3(CCN(C)CC3)C1)[C@H](CC(C)C)CO2 [Compound 390] |  |  |  |  | Ent. B Max Activity (%): +++ (+++ is >60%); pEC50 (read-out: Ent. B EC50): > 6.00 |
| Cc1cccc(C)c1-c1cc2nc(n1)NS(=O)(=O)c1cccc(c1)C(=O)N(C1CC(OC(=O)N(C)C)C1)[C@H](CC(C)C)CO2 (stereo partly drawn) [Compound 48, [3-[(11R)-6-(2,6-dimethylphenyl)-11-isobutyl-2,2,13-trioxo-9-oxa-2λ^6-thia-3,5,12,19-tetrazatricyclo[12.3.1.14,8]nonadeca-1(18),4(19),5,7,14,16-hexaen-12-yl]cyclobutyl] N,N-dimethylcarbamate] |  |  | ++ (++ is 30-60%) | > 6.00 |  |
| COC(=O)N1CCC2(CC1)CC(N1C(=O)c3cccc(c3)S(=O)(=O)Nc3nc(cc(-c4c(C)cccc4C)n3)OC[C@H]1CC(C)(C)C)C2 [Compound 262] | +++ (+++ is >60%) | > 6.00 |  |  |  |
| COC(=O)NC1CC2(C1)CC(N1C(=O)c3cccc(c3)S(=O)(=O)Nc3nc(cc(-c4c(C)cccc4C)n3)OC[C@H]1CC(C)(C)C)C2 (stereo partly drawn) [Compound 88, Methyl ((2S,4s,6S)-6-((R)-1^6-(2,6-dimethylphenyl)-7-neopentyl-3,3-dioxido-5-oxo-9-oxa-3-thia-2,6-diaza-1(2,4)-pyrimidina-4(1,3)-benzenacyclononaphane-6-yl)spiro[3.3]heptan-2-yl)carbamate] | +++ (+++ is >60%) | > 6.00 |  |  |  |
| Cc1cccc(C)c1-c1cc2nc(n1)NS(=O)(=O)c1cccc(c1)C(=O)N(C1CC3(CC(N(C)C)C3)C1)[C@H](CC(C)(C)C)CO2 (some centres unmarked) [Compound 462] | +++ (+++ is >60%) | > 6.00 |  |  |  |
| Cc1cccc(C)c1-c1cc2nc(n1)NS(=O)(=O)c1cccc(c1)C(=O)N(C1CC3(CC3)C1)CC(C(C)C)O2 (centres unmarked) [Compound 468] |  |  |  |  | Ent. B Max Activity (%): ++ (++ is 30-60%); pEC50 (read-out: Ent. B EC50): > 6.00 |
| Cc1cccc(C)c1-c1cc2nc(n1)NS(=O)(=O)c1cccc(c1)C(=O)N(C1CC(NC3CCOCC3)C1)[C@H](CC(C)C)CO2 (stereo partly drawn) [Compound 71, (11R)-6-(2,6-dimethylphenyl)-11-isobutyl-2,2-dioxo-12-[3-(tetrahydropyran-4-ylamino)cyclobutyl]-9-oxa-2λ^6-thia-3,5,12,19-tetrazatricyclo[12.3.1.14,8]nonadeca-1(18),4(19),5,7,14,16-hexaen-13-one] | +++ (+++ is >60%) | > 6.00 |  |  |  |
